# Assay results as given in paper PMC11847542 (2025).
# Experiments:
# [1] = test system: KRAS RNA G4-c (KRAS RG4) (RNA, G4) AAGGUGGCGGCGGCUCG; test: CD melting; settings: 1 mM K+, 10 mM Tris-HCl pH 7.4, 2 μM RNA
# [2] = test system: KRAS RNA G4-c (KRAS RG4) (RNA, G4) AAGGUGGCGGCGGCUCG; test: thiazole orange displacement, fluorescence; settings: 100 mM K+; 10 mM Tris-HCl pH 7.4; 0.25 μM RNA; tracer 0.5 μM thiazole orange displaced
# [3] = test system: KRAS RNA G4-c (KRAS RG4) (RNA, G4) AAGGUGGCGGCGGCUCG; test: EMSA; settings: 15% native PAGE, Tris-borate-EDTA; 10 μM RNA, 0-50 μM compound
# [4] = test system: KRAS RNA G4-a (RNA, G4) GCGGCGGCGGAGGCAGCA; test: CD melting; settings: 1 mM K+; 10 mM Tris-HCl pH 7.4; 2 μM RNA, 10 μM compound; Tm alone 66.0 °C
# [5] = test system: KRAS RNA G4-b (RNA, G4) GGCGGCGGCAGUGGCGGCGG; test: CD melting; settings: 1 mM K+; 10 mM Tris-HCl pH 7.4; 2 μM RNA, 10 μM compound; Tm alone 59.5 °C
# [6] = test system: KRAS RNA G4-c (KRAS RG4) (RNA, G4) AAGGUGGCGGCGGCUCG; test: 1H NMR, imino protons; settings: K+ (potassium phosphate, concentration not stated), 10% D2O, 25 °C, 200 μM RNA, 1 to 5 equivalents
# [7] = test system: 5'-Cy5-labeled KRAS RG4 (G4-c) (RNA, G4) AAGGUGGCGGCGGCUCG; test: fluorescence quenching titration of Cy5; settings: 100 mM K+; 10 mM Tris-HCl pH 7.4; 1 μM RNA
# [8] = test system: 3'-Cy5-labeled KRAS RG4 (G4-c) (RNA, G4) AAGGUGGCGGCGGCUCG; test: fluorescence quenching titration of Cy5; settings: 100 mM K+; 10 mM Tris-HCl pH 7.4; 1 μM RNA
# [9] = test system: RNA hairpin (RNA, hairpin) GGCCGCCGCAGUGGCGGCGG; test: competition: fluorescence recovery of MBD-quenched Cy5-labeled KRAS RG4; settings: 100 mM K+; 10 mM Tris-HCl pH 7.4; RNA hairpin added as competitor to 1 μM Cy5-G4-c with MBD
# [10] = test system: DNA hairpin (DNA, hairpin) CGCGCGCGTTTTCGCGCGCG; test: as above; settings: 100 mM K+; 10 mM Tris-HCl pH 7.4; DNA hairpin added as competitor to 1 μM Cy5-G4-c with MBD
binding [1],EC50 [2] [nM],also measured,SMILES
yes,1500,,Cc1cc2nc3c4ccc(N5CCC(C)CC5)cc4c4cc([N+]5(C)CCC(C)CC5)ccc4c3nc2cc1C (stereo not shown)
weak,1800,,CC1CCN(c2ccc3c(c2)c2cc([N+]4(C)CCC(C)CC4)ccc2c2nc4ccccc4nc32)CC1 (stereo not shown)
weak,7000,,CC1CCN(c2ccc3c(c2)c2cc([N+]4(C)CCC(C)CC4)ccc2c2nc4cc(Cl)c(Cl)cc4nc32)CC1 (stereo not shown)
,1500,"binding [3]: yes; binding [4]: yes; binding [5]: yes; ΔTm ([1]; 10 μM compound, Tm alone 64.1 °C): 11.0 °C; binding [6]: yes; binding [7]: yes; binding [8]: yes; binding [9]: no; binding [10]: no",CC1CCN(c2ccc3c(c2)c2cc([N+]4(C)CCC(C)CC4)ccc2c2nc4cc5ccccc5cc4nc32)CC1 (stereo not shown)
weak,3300,,CC1CCN(c2ccc3c(c2)c2cc([N+]4(C)CCC(C)CC4)ccc2c2nc4cc(F)c(F)cc4nc32)CC1 (stereo not shown)
no,45000,,CC1CCN(c2ccc3c(c2)c2cc(N4CCC(C)CC4)ccc2c2nc4cc5ccccc5cc4nc32)CC1
yes,1400,,COc1cc2nc3c4ccc(N5CCC(C)CC5)cc4c4cc([N+]5(C)CCC(C)CC5)ccc4c3nc2cc1OC (stereo not shown)
